Measurements: article PMC7026418, “The kinase polypharmacology landscape of clinical PARP inhibitors” (Scientific Reports, 2020)
Where two headings read alike, the source gives them in different places. Values belong to the molecule of their own block, whether it stands above or below them.

Columns and labels:
Assay in all cases: biochemical
Parameters in all cases: DiscoveRx KINOMEscan active site-directed competition binding; percent of control kinase bound to immobilised ligand
PLK2 = PLK2 (Homo sapiens, UniProt Q9NYY3)
PIK3C2B = PIK3C2B (Homo sapiens, UniProt O00750)
MLK1 = target: T1, MLK1 (Homo sapiens, UniProt P80192)
T1 construct: gene MAP3K9

EPHA7 = EPHA7 (Homo sapiens, UniProt Q15375)
MAP3K3 = target: T2, MAP3K3 (Homo sapiens, UniProt Q99759)
T2 sequence (Q99759 1-626): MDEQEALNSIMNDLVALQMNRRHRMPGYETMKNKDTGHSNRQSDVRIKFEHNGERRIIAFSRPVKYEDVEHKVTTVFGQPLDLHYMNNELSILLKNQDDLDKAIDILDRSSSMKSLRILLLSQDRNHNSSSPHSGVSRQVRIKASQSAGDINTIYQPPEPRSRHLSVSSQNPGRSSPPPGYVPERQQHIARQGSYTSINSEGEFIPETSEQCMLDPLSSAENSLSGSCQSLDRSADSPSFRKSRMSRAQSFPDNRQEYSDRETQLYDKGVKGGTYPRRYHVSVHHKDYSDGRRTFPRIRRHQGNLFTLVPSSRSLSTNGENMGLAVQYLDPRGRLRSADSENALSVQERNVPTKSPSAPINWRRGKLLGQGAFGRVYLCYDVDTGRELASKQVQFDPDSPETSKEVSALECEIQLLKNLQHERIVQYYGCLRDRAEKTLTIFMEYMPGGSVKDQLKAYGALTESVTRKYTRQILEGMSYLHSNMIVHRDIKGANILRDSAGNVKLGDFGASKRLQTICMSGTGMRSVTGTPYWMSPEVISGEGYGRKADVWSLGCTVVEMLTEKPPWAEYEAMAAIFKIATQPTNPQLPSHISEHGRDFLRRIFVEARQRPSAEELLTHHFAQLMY

AURKC = target: T3, AURKC (Homo sapiens, UniProt Q9UQB9)
T3 sequence (Q9UQB9 1-309): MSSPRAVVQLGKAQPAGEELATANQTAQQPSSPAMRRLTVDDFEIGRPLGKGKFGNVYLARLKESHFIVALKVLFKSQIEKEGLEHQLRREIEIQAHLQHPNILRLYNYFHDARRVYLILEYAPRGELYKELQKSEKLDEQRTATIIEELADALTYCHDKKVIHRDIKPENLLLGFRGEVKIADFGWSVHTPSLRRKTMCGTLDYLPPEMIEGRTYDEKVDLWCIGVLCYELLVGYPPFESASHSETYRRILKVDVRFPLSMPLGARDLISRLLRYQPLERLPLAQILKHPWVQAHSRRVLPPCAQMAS

SYK = SYK (Homo sapiens, UniProt P43405)
[1] = target: T4, ABL1(Y253F)-phosphorylated (Homo sapiens, UniProt P00519, Y253F)
T4 construct: phosphorylated

PAK6 = PAK6 (Homo sapiens, UniProt Q9NQU5)
FLT3(K663Q) = target: T5, FLT3(K663Q) (Homo sapiens, UniProt P36888, K663Q)
T5 sequence (P36888 1-993 K663Q): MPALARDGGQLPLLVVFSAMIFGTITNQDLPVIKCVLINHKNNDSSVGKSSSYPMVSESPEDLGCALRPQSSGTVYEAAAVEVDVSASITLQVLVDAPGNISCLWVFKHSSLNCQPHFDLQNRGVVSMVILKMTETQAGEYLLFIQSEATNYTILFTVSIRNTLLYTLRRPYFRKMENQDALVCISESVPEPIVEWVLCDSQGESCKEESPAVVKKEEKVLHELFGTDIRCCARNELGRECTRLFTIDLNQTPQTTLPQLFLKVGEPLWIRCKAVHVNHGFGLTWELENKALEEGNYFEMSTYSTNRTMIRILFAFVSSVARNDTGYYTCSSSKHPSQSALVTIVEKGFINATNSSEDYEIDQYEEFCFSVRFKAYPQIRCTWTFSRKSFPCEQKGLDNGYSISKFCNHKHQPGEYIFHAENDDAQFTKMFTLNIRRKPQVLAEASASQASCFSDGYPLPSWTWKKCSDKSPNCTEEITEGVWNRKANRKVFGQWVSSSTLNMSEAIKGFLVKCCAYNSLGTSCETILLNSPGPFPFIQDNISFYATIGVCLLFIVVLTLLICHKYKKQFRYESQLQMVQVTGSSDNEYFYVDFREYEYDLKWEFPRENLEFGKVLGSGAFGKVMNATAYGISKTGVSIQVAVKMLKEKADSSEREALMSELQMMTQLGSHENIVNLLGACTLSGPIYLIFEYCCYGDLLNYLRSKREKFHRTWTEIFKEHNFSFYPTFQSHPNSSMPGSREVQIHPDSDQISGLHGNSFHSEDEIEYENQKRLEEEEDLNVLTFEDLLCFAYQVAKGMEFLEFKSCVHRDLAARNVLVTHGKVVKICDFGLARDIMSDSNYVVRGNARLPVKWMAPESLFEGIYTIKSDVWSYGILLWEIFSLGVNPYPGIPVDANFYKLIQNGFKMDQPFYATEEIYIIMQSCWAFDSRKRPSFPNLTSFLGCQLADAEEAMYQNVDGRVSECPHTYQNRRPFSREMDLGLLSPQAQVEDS

[2] = read-out: Olaparib / %Ctrl @ 10000nM
[3] = read-out: Talazoparib (BMN 673) / %Ctrl @ 10000nM
[4] = read-out: Rucaparib / %Ctrl @ 10000nM, binding competition, % of control
[5] = read-out: Niraparib (MK-4827) / %Ctrl @ 10000nM

Sequence of PIK3C2B (O00750 whole entry): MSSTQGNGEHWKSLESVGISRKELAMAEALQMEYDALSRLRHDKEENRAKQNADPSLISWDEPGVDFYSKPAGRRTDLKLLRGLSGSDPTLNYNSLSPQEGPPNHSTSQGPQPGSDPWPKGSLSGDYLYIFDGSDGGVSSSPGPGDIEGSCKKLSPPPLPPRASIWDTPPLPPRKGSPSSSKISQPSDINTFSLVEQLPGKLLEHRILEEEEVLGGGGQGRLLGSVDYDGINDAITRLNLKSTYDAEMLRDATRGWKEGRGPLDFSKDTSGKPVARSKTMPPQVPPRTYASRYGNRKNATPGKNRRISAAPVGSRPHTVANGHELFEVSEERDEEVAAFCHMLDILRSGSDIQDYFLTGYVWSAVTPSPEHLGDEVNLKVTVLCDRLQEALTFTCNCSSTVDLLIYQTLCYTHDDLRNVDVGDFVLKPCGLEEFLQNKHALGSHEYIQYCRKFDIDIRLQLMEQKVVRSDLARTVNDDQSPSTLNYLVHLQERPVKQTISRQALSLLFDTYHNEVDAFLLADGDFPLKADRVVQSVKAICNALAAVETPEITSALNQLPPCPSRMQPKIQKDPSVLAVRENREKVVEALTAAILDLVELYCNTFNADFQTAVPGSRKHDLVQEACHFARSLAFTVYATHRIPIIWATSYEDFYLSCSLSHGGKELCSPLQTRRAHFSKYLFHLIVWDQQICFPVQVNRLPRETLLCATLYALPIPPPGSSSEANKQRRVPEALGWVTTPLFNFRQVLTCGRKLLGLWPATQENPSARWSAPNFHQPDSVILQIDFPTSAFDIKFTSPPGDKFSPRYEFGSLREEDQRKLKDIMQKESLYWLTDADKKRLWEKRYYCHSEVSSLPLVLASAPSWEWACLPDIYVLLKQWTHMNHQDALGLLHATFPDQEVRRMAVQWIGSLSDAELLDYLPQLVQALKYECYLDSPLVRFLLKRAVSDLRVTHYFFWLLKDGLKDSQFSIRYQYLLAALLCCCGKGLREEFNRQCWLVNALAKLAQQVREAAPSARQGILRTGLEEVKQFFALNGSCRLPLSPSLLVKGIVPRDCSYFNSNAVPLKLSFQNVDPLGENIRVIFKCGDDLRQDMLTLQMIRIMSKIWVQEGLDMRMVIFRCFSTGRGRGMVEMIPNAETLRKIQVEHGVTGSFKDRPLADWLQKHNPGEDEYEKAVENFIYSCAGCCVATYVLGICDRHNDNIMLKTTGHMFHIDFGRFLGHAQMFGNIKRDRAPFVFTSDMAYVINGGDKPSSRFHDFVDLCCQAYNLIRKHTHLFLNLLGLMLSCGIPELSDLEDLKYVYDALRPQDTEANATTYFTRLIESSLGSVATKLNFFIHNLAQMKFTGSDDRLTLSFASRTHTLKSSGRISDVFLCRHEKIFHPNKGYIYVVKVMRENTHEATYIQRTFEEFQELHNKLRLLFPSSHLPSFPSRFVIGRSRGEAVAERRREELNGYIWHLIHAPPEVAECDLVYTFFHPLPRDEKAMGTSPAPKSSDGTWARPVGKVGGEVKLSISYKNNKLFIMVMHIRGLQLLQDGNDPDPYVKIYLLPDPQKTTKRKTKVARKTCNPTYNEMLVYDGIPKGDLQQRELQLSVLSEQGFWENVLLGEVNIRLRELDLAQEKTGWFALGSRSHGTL
Sequence of EPHA7 (Q15375 whole entry): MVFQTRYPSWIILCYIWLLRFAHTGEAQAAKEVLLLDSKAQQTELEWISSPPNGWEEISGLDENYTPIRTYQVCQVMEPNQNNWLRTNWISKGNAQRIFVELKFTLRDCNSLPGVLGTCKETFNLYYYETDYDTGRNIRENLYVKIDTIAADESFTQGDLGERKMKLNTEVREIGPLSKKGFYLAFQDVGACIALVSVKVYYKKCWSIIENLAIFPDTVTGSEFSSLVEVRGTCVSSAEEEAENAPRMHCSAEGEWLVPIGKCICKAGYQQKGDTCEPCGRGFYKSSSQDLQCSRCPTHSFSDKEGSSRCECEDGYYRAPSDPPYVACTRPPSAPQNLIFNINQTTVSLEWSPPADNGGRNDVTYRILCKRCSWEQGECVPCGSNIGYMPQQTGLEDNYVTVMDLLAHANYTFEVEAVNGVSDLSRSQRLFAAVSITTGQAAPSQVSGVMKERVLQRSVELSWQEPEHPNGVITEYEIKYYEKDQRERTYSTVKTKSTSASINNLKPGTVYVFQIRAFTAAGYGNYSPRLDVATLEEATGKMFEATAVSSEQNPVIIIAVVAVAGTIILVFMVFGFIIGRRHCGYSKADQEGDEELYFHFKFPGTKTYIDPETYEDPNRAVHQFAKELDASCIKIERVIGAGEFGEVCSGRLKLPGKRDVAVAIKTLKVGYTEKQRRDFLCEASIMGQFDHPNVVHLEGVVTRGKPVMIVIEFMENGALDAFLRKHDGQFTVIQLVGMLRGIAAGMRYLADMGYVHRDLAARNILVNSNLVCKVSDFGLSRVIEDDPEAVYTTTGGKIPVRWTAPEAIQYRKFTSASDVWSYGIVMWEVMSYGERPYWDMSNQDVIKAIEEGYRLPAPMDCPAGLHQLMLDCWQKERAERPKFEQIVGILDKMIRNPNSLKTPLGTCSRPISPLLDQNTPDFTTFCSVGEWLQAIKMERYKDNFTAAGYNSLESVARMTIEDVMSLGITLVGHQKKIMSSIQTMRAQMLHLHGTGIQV
Sequence of PAK6 (Q9NQU5 whole entry): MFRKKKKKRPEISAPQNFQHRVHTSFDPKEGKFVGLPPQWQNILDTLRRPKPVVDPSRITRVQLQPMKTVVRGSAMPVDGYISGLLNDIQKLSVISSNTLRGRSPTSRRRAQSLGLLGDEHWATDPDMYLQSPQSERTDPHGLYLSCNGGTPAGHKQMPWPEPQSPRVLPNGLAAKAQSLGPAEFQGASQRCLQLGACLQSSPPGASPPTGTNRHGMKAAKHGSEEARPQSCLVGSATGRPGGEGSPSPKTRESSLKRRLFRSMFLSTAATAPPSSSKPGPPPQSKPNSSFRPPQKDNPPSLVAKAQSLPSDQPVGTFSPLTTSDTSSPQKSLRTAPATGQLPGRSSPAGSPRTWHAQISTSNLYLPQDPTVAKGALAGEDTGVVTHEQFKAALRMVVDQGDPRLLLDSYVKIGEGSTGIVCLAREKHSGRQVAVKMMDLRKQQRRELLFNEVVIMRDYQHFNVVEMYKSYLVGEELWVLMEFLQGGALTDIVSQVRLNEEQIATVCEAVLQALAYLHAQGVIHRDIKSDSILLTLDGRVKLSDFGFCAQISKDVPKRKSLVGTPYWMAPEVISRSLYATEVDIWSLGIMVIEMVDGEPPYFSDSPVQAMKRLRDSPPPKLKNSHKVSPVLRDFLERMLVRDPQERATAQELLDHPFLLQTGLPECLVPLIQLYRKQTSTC
T1 sequence (P80192 whole entry): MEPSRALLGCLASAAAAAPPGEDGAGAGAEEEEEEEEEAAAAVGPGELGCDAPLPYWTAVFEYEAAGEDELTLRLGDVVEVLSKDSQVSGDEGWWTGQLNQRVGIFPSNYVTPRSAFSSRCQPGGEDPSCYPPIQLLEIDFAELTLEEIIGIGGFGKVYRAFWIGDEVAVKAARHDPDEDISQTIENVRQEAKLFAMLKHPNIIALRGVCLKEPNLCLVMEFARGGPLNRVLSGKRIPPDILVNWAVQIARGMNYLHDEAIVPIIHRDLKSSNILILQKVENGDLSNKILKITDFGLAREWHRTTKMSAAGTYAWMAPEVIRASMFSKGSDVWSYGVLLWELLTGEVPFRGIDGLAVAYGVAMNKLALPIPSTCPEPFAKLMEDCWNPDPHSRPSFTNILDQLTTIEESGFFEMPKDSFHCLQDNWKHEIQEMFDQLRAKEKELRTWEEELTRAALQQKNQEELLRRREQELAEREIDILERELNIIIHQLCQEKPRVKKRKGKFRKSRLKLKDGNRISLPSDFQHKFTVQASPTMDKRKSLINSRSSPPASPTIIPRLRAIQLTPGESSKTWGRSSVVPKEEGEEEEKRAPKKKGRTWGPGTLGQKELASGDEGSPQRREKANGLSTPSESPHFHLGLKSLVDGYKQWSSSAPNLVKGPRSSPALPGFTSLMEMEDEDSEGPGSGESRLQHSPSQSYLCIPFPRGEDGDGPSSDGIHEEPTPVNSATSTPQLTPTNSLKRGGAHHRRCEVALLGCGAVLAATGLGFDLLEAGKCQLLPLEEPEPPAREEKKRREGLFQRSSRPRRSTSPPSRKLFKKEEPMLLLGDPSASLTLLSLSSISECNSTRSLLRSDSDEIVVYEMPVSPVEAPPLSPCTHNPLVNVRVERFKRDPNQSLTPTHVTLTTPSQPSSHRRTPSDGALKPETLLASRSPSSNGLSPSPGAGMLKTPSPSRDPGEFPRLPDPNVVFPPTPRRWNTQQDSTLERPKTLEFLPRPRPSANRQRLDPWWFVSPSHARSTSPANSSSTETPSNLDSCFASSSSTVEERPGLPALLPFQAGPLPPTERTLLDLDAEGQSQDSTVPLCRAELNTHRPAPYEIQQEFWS
Sequence of PLK2 (Q9NYY3 whole entry): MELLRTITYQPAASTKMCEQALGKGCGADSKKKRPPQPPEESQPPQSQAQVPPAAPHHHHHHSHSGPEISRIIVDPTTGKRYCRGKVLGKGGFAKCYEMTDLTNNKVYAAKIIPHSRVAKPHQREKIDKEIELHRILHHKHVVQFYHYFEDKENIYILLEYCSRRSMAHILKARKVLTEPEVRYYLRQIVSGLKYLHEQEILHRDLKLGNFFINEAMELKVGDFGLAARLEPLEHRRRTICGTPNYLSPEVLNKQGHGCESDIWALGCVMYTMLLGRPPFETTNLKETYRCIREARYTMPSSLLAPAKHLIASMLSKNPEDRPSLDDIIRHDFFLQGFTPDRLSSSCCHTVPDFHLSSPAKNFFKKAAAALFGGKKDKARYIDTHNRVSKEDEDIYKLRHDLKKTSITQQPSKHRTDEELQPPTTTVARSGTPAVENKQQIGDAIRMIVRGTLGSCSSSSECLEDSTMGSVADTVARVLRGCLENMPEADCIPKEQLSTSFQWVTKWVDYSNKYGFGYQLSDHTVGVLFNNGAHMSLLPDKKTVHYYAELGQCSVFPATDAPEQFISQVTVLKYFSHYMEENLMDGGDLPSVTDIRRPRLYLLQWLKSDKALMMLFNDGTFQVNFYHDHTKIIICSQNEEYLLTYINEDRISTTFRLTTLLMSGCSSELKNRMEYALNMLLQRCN

percent of control binding at 10 µM (PLK2; [2]): 95%
percent of control binding at 10 µM (PIK3C2B; [2]): 100%
percent of control binding at 10 µM (MLK1; [2]): 100%
percent of control binding at 10 µM (EPHA7; [2]): 100%
percent of control binding at 10 µM (MAP3K3; [2]): 88%
percent of control binding at 10 µM (AURKC; [2]): 97%
percent of control binding at 10 µM (SYK; [2]): 100%
percent of control binding at 10 µM [1, 2]: 79%
percent of control binding at 10 µM (PAK6; [2]): 87%
percent of control binding at 10 µM (FLT3(K663Q); [2]): 88%
SMILES: O=C(c1cc(Cc2n[nH]c(=O)c3ccccc23)ccc1F)N1CCN(C(=O)C2CC2)CC1 [Olaparib]

percent of control binding at 10 µM (PLK2; [3]): 100%
percent of control binding at 10 µM (PIK3C2B; [3]): 67%
percent of control binding at 10 µM (MLK1; [3]): 77%
percent of control binding at 10 µM (EPHA7; [3]): 96%
percent of control binding at 10 µM (MAP3K3; [3]): 94%
percent of control binding at 10 µM (AURKC; [3]): 100%
percent of control binding at 10 µM (SYK; [3]): 85%
percent of control binding at 10 µM [1, 3]: 100%
percent of control binding at 10 µM (PAK6; [3]): 90%
percent of control binding at 10 µM (FLT3(K663Q); [3]): 91%
SMILES: Cn1ncnc1[C@H]1c2n[nH]c(=O)c3cc(F)cc(c23)N[C@@H]1c1ccc(F)cc1 [Talazoparib]

percent of control binding at 10 µM (PLK2; [4]): 76%
percent of control binding at 10 µM (PIK3C2B; [4]): 98%
percent of control binding at 10 µM (MLK1; [4]): 100%
percent of control binding at 10 µM (EPHA7; [4]): 100%
percent of control binding at 10 µM (MAP3K3; [4]): 85%
percent of control binding at 10 µM (AURKC; [4]): 78%
percent of control binding at 10 µM (SYK; [4]): 100%
percent of control binding at 10 µM [1, 4]: 69%
percent of control binding at 10 µM (PAK6; [4]): 96%
Rucaparib / %Ctrl @ 10000nM (FLT3(K663Q); binding competition, % of control): 93%
SMILES: CNCc1ccc(-c2[nH]c3cc(F)cc4c3c2CCNC4=O)cc1 [Rucaparib]

SMILES: NC(=O)c1cccc2cn(-c3ccc([C@@H]4CCCNC4)cc3)nc12 [Niraparib]
percent of control binding at 10 µM (PLK2; [5]): 92%
percent of control binding at 10 µM (PIK3C2B; [5]): 100%
percent of control binding at 10 µM (MLK1; [5]): 87%
percent of control binding at 10 µM (EPHA7; [5]): 89%
percent of control binding at 10 µM (MAP3K3; [5]): 100%
percent of control binding at 10 µM (AURKC; [5]): 56%
percent of control binding at 10 µM (SYK; [5]): 82%
percent of control binding at 10 µM [1, 5]: 57%
percent of control binding at 10 µM (PAK6; [5]): 93%
percent of control binding at 10 µM (FLT3(K663Q); [5]): 75%
